# Values quoted from earlier work, collected in patent US20100210792A1, “DRUG DELIVERY” (priority 2006, published 2010).
# Details: Table 1 drug list
row,Hydrophobic,Compound
1,YES,OCCOCCN1CCN(C2=Nc3ccccc3Sc3ccccc32)CC1 [Quetiapine]
2,YES,CN[C@H]1CC[C@@H](c2ccc(Cl)c(Cl)c2)c2ccccc21 [Sertradine]
3,YES,CC(C)c1nc(N(C)S(C)(=O)=O)nc(-c2ccc(F)cc2)c1/C=C/[C@@H](O)C[C@@H](O)CC(=O)O [Rosuvastatin]

# Continued, compound first:
row,Compound,Hydrophobic
1,CC(C)c1c(C(=O)Nc2ccccc2)c(-c2ccccc2)c(-c2ccc(F)cc2)n1CC[C@@H](O)C[C@@H](O)CC(=O)O [Atorvastatin],YES
2,COc1ccc2nc([S@@+]([O-])Cc3ncc(C)c(OC)c3C)[nH]c2c1 [Esomeprazole],YES
3,Cc1c(OCC(F)(F)F)ccnc1C[S+]([O-])c1nc2ccccc2[nH]1 (centres unmarked) [Lansoprazole],YES
4,"Cc1nc2n(c(=O)c1CCN1CCC(c3noc4cc(F)ccc34)CC1)CCCC2 [Risperidone, 4-[2-[4-(6-fluorobenzo[d]isoxazol-3-yl)-1-piperidyl]ethyl]-3-methyl-2,6-diazabicyclo[4.4.0]deca-1,3-dien-5-one]",YES
5,CC[C@H]1OC(=O)[C@H](C)[C@@H](O[C@H]2C[C@@](C)(OC)[C@@H](O)[C@H](C)O2)[C@H](C)[C@@H](O[C@@H]2O[C@H](C)C[C@H](N(C)C)[C@H]2O)[C@](C)(OC)C[C@@H](C)C(=O)[C@H](C)[C@@H](O)[C@]1(C)O [Clarithromycin],YES
